Measured values taken from patent publication US20090018150A1, “5-Ht2b Receptor Antagonists” (ASTERAND UK LIMITED, priority 2003, published 2009).
Structures can show the parent of a compound that is named as a salt.

What was measured:
[1] = biological target: T1, human cloned 5-HT2B receptors (Homo sapiens, UniProt P41595); test: Human cloned 5-HT2B cell-based functional assay; details: inhibition of 5-HT response, Fluo-4 AM, CHO.K1 cells expressing cloned 5-HT2B receptor
T1 construct: expressed in transfected cells; host or cells: CHO-K1
T1 sequence (P41595 whole entry): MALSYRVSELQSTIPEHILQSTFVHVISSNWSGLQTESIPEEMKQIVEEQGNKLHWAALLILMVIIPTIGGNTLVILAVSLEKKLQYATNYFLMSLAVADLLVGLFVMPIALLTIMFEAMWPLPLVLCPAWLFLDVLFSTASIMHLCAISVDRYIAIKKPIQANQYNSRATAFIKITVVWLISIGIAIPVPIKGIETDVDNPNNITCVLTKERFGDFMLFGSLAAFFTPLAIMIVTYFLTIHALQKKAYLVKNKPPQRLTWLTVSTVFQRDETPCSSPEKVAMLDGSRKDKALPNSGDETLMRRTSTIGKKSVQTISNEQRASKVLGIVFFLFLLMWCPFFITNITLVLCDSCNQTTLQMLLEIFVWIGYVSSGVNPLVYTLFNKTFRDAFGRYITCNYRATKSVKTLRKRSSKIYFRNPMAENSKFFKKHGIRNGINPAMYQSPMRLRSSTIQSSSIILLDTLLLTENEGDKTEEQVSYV
Method: The following describes an in vitro functional assay using human cloned 5-HT2B receptors to determine the ability of compounds to block the receptor. CHO.K1 cells expressing cloned 5-HT2B receptor were maintained In Ultra-CHO medium containing 400 μg/ml of G418, 1000 U/ml penicillin, 100 μg/ml streptomycin, 2.5 μg/ml fungizone, in 95/5% O2/CO2 at 37° C. Ultra-CHO medium additionally supplemented with 1% foetal bovine serum was used when seeding the cells and removed after 5 hours. Cells were plated in Costar 96 well white, clear-bottomed plate at a density of 50,000 cells per well and incubated for at least 24 hours in 95/5% O2/CO2 at 37° C. before running the assay. Media was removed from the wells and 200 μl of 4 μM Fluo-4 AM added, this was incubated in a Wallace Victor 2V workstation at 37° C. for 30 minutes. The Fluo-4 AM was then removed from the wells, which were then washed twice with 200 μl of buffer (HBSS without calcium/magnesium/phenol red, 20 mM HEPES, 1 mM Ca^2+, 1 mM Mg^2+, 2.5 mM probenecid, pH to 7.4), 180 μl of buffer or test compound was added to the well and incubated for 30 minutes. The Victor 2V injectors were used to inject 20 μl of 5-HT after obtaining 10 0.1-second baseline readings at 535 nm, followed by 150 readings. All test compounds were aliquoted in 100% DMSO at 10 mM and diluted to 1 mM in 50% DMSO, subsequent dilutions were made using buffer. Buffer was also used to dilute the 5-HT. Data were analysed using Microsoft Excel and GraphPad Prism, with the latter used to produce sigmoidal dose-response curves for each compound. The compound concentration that inhibited the 5-HT response by 50% was taken (IC50-M), and the results are shown in Table 2, as pIC50, being the negative log (to the base 10) of the measured IC50 values.

[2] = biological target: T2, cloned human 5-HT2A receptor (Homo sapiens, UniProt P28223); test: Human 5-HT2A receptor binding assay; details: [3H]ketanserin (1 nM) displacement, CHO-K1 cell membranes; read-out: 5-HT2A pKi (converted)
T2 construct: purchased Euroscreen; host or cells: CHO-K1
T2 sequence (P28223 whole entry): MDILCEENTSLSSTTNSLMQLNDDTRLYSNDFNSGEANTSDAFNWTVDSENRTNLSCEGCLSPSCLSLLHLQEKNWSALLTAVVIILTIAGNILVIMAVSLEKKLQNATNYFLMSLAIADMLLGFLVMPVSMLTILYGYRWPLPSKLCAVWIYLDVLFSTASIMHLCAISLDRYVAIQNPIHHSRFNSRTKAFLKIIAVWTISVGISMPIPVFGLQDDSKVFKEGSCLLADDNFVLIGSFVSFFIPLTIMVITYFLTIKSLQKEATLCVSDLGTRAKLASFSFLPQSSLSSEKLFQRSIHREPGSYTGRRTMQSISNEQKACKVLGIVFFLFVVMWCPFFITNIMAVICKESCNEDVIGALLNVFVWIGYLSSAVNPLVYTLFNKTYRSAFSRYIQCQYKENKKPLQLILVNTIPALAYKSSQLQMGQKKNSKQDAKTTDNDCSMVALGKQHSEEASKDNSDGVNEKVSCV
Summary of the method: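 Competition binding with 15 μg membranes from CHO-K1 cells expressing cloned human receptor, 1 nM [3H]ketanserin, 10 μM pargyline, 50 mM Tris pH 7.4, compounds 1×10^−10 to 1×10^−4 M; 100 μM mianserin defined nonspecific binding. Incubated 15 min at 37 °C, filtered, counted; IC50 converted to Ki using saturation-derived Kd.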

[3] = biological target: T3, cloned human 5-HT2C receptor (Homo sapiens, UniProt P28335); test: Human 5-HT2C receptor binding assay; details: [3H]mesulergine (1 nM) displacement, CHO-K1 cell membranes; read-out: 5-HT2C pKi (converted)
T3 construct: purchased Euroscreen; host or cells: CHO-K1
T3 sequence (P28335 33-458): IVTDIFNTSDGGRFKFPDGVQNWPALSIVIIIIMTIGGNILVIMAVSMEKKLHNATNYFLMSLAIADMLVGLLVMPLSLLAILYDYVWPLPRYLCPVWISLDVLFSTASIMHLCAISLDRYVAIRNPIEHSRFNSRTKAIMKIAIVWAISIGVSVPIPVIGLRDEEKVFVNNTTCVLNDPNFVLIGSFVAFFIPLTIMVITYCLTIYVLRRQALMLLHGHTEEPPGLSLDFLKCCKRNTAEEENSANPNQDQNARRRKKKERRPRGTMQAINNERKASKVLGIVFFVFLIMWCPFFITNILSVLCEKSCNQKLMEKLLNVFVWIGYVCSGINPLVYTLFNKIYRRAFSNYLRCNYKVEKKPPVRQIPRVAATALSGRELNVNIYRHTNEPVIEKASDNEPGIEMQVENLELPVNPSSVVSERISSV
Summary of the method: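 CHO-K1 cell membranes expressing the receptor (6 μg) competed against [^3H]mesulergine (1 nM) in 50 mM Tris-HCl pH 7.7, 0.1% ascorbic acid, 10 μM pargyline for 30 min at 37° C; compounds 1×10^−10 to 1×10^−4M. Nonspecific binding with 100 μM mianserin; filtration and scintillation counting. IC50 converted to Ki using saturation-derived Kd.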

[4] = biological target: T1, human cloned 5-HT2B receptors; test: Human cloned 5-HT2B receptor binding assay; details: [3H]LSD (1 nM) displacement, membranes of CHO-K1 cells expressing cloned 5-HT2B receptor; read-out: 5-HT2B pKi (converted)
Summary of the method: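 Membranes from CHO-K1 cells expressing cloned receptor incubated 30 min at 37 °C with 1 nM [3H]LSD, 10 μM pargyline and compound (1×10^−10 to 1×10^−4 M) in 50 mM Tris-HCl pH 7.4, 4 mM CaCl2. Nonspecific binding with 100 μM 5-HT; filtration and scintillation counting, IC50 converted to Ki using Kd from saturation binding.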

SMILES	IC50 [1] [nM]	Ki [2] [nM]	Ki [3] [nM]	Ki [4] [nM]
COc1ccccc1-c1cccc(-c2oc(N)nc2C)c1 [Compound 219B, 5-(2′-Methoxy-biphenyl-3-yl)-4-methyl-oxazol-2-ylamine, trifluoroacetic acid]	< 1000	> 1000	> 1000	< 100
CC(=O)Nc1nc(-c2ccc(F)c3ccccc23)c[nH]1 [Compound 103F, N-[4-(4-Fluoro-naphthalen-1-yl)-1H-imidazol-2-yl]-acetamide]	< 100	> 3160	> 3160	< 100
COc1ccc2ccccc2c1-c1c[nH]c(NC(C)=O)n1 [Compound 103C, N-[4-(2-Methoxy-naphthalen-1-yl)-1H-imidazol-2-yl]-acetamide]	< 100	> 316	> 316	< 100
Cc1cc(Nc2ccccc2)nc(N)n1 [Compound 2A, N^4-phenyl-6-methyl-pyrimidine-2,4-diamine hydrochloric acid]		> 10000	> 1000	< 1000
Nc1ncc(-c2cccc(-c3ccccc3)c2)o1 [Compound 209A, 5-Biphenyl-3-yl-oxazol-2-ylamine]		> 10000	> 10000	< 316
Nc1ncc(-c2cccc(-c3ccccc3Cl)c2)o1 [Compound 209E, 5-(2′-Chloro-biphenyl-3-yl)-oxazol-2-ylamine]		> 1000	> 10000	< 316
Cc1cccc(-c2cccc(Nc3nc(N)nn3C)c2)c1 [Compound 406C, 1-methyl-1-(3′-methyl-biphenyl-3-yl)-1H-[1,2,4]triazole-3,5-diamine]	< 100	> 1000	> 1000	< 100
Cc1cc(Nc2cccc(-c3cccnc3)c2)nc(N)n1 [Compound 10D, 6-methyl-N^4-(3-pyridin-3-yl-phenyl)-pyrimidine-2,4-diamine bis trifluoroacetic acid]		> 1000	> 1000	< 1000
CC(=O)Nc1nc(-c2cccc3sccc23)c[nH]1 [Compound 103L, N-(4-Benzo[b]thiophen-4-yl-1H-imidazol-2-yl)-acetamide]		> 10000	> 10000	< 100
Nc1nc(-c2cccc3ccc(Br)cc23)c[nH]1 [Compound 104G, 4-(7-Bromo-naphthalen-1-yl)-1H-imidazol-2-ylamine]		> 316	> 316	< 100
COc1ccccc1-c1ccc(OC)c(-c2cnc(N)o2)c1 [Compound 224B, 5-(4,2′-dimethoxy-biphenyl-3-yl)-oxazol-2-ylamine, trifluoroacetic acid]		> 1000	> 1000	< 316
Cc1oc(N)nc1-c1cccc(-c2ccccc2)c1 [Compound 218A, 4-Biphenyl-3-yl-5-methyl-oxazol-2-ylamine, trifluoroacetic acid]		> 1000	> 1000	< 1000
COc1ccc(-c2ccccc2)cc1-c1cnc(N)o1 [Compound 224A, 5-(4-methoxy-biphenyl-3-yl)-oxazol-2-ylamine, trifluoroacetic acid]		> 1000	> 1000	< 1000
COc1c(-c2cnc(NC(C)=O)[nH]2)ccc2ccccc12 [Compound 103E, N-[4-(1-Methoxy-naphthalen-2-yl)-1H-imidazol-2-yl]-acetamide]		> 10000	> 1000	< 100
Cc1cc(Nc2cccc(Br)c2)nc(N)n1 [Compound 2AF, N^4-(3-bromo-phenyl)-6-methyl-pyrimidine-2,4-diamine trifluoroacetic acid]		> 3160	> 1000	< 1000
CC(=O)Nc1nc(-c2cccc3c(Br)cccc23)c[nH]1 [Compound 103H, N-[4-(5-Bromo-naphthalen-1-yl)-1H-imidazol-2-yl]-acetamide]		> 1000	> 1000	< 100
COc1ccc(-c2cccc(Nc3cc(C)nc(N)n3)c2)cc1OC [Compound 10B, N-(3′,4′-dimethoxy-biphenyl-3-yl)-6-methyl-pyrimidine-2,4-diamine trifluoroacetic acid]		> 10000	> 10000	< 1000
COc1ccc2ccccc2c1-c1c[nH]c(N)n1 [Compound 104C, 4-(2-Methoxy-naphthalen-1-yl)-1H-imidazol-2-ylamine]	< 1000	> 1000	> 316	< 100
CC(=O)Nc1cccc(-c2cccc(Nc3cc(C)nc(N)n3)c2)c1 [Compound 10I, N-[3′-(2-amino-6-methyl-pyrimidin-4-ylamino)-biphenyl-3-yl]-acetamide hydrochloride]		> 10000	> 10000	< 1000
Cc1cc(Nc2ccc(-c3ccccc3)cc2)nc(N)n1 [Compound 11A, N^4-biphenyl-4-yl-6-methyl-pyrimidine-2,4-diamine trifluoroacetic acid]		> 1000	> 100	< 10
COc1ccc2ccccc2c1-c1nc(N)[nH]c1C [Compound 104J, 4-(2-Methoxy-naphthalen-1-yl)-5-methyl-1H-imidazol-2-ylamine]	< 100	> 316	> 100	< 100
Cc1cc(C)cc(-c2cccc(-c3cnc(N)o3)c2)c1 [Compound 209K, 5-(3′,5′-Dimethyl-biphenyl-3-yl)-oxazol-2-ylamine, trifluoroacetic acid]		> 1000	> 1000	< 1000
